Source: ChEMBL document CHEMBL1201862, “PubChem BioAssay data set” (2004)
Calls of active or inactive are those of the source.

Assays:
Streptococcus [1] = assay: Luminescence Microorganism-Based Dose Response Follow up to Identify Compounds Cytotoxic to Streptococcus. [Related pubchem assays: 1677 (Project Summary), 1915, 1914, 1902 (Retest at Dose), 1900 (Counter Screen), 1662 (Primary HTS)]; type: functional, organism-based
[2] = viability loss of HMLE_sh_eGFP cells – cell-based, luminescence, counter-screen for HMLE_sh_ECad selective toxicity project, dose response (AID 463074); type: functional, Homo sapiens;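 note: HMLE human mammary epithelial cells expressing control shRNA against eGFP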
[3] = test system: Streptococcus sp. 'group A'; assay: Streptococcus pyogenes SK(-)GAS viability under kanamycin – luminescence, BacTiterGlo, confirmation, counter-screen for streptokinase expression inhibitor project, dose response (AID 1900); type: functional, organism-based
Streptokinase A = target: T1, Streptokinase A (Streptococcus pyogenes serotype M1, UniProt P10520); assay: viability-normalized secreted streptokinase activity reduction – plasminogen activation absorbance, OD405, dose response (AID 1914); type: functional, Streptococcus pyogenes M1 GAS;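 note: secreted streptokinase activity via plasminogen activation per viability signal from cell pellet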
T1 sequence (P10520 whole entry): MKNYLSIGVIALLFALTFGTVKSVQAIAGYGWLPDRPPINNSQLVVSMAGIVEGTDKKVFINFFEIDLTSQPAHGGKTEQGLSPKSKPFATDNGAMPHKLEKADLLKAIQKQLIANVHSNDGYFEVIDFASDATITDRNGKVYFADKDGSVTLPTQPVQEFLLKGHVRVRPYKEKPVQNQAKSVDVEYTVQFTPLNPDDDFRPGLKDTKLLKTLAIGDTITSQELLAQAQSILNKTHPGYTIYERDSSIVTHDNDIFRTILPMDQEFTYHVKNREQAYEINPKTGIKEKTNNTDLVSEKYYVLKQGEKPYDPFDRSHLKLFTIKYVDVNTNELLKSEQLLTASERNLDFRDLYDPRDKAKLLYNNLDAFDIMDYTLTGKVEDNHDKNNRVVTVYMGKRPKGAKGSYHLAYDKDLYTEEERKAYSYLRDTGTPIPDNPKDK

Streptococcus [4] = assay: GAS UMAA2166 growth inhibition – luminescence, BacTiterGlo, counter-screen for streptokinase expression inhibitor project, dose response (AID 1915); type: functional, organism-based;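 note: potency for reduction of bacterial viability or growth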
[5] = Luminescence Cell-Based Dose Retest to Confirm Inhibitors of Cancer Stem Cells. [Related pubchem assays (depositor defined):AID2717, AID2721]; type: functional; settings: Homo sapiens
[6] = target: Dual specificity protein phosphatase 6 (Rattus norvegicus, UniProt Q64346); type: functional;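 note: confirmatory in vitro dose-response testing of MKP-3 inhibition; recombinant His-tagged MKP-3 made in E. coli BL21 with OMFP substrate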
[7] = target: Tyrosine-protein phosphatase non-receptor type 12 (Homo sapiens, UniProt Q05209); assay: SAR Selectivity Analysis of small molecule inhibitors of PEST using pCAP in a fluorescence assay. [Related pubchem assays (depositor defined):AID1779, AID1784, AID2135]; type: functional
[8] = target: T2, Tyrosine-protein phosphatase non-receptor type 22 (Homo sapiens, UniProt Q9Y2R2); assay: inhibition of lymphoid tyrosine phosphatase LYP – biochemical, pCAP fluorogenic substrate, fluorescence, set 3, SAR follow-up (AID 449727); type: functional
[9] = target: T2, Tyrosine-protein phosphatase non-receptor type 22; assay: SAR LYP1 Fluorescent Assay using OMFP substrate for In Vitro dose response studies - Set 3. [Related pubchem assays (depositor defined):AID1779, AID1784, AID2140, AID2686]; type: functional
[10] = target: T3, Tyrosine-protein phosphatase non-receptor type 7 (Homo sapiens, UniProt P35236); assay: redox-active compounds inhibiting HePTP phosphatase – biochemical, fluorescence, mechanism study (AID 2068); type: functional
T3 sequence (P35236 whole entry): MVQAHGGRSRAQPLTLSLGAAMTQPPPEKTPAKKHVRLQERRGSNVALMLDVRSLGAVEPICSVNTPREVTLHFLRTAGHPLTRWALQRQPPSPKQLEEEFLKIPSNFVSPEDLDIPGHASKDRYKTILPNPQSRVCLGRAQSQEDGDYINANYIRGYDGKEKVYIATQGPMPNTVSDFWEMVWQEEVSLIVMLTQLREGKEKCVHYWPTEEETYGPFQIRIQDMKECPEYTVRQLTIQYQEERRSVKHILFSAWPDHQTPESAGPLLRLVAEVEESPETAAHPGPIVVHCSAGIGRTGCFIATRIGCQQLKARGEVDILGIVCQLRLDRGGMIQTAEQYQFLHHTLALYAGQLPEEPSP

[11] = target: T3, Tyrosine-protein phosphatase non-receptor type 7; assay: inhibition of hematopoietic tyrosine phosphatase HePTP – biochemical, set 2, SAR follow-up (AID 449736); type: functional
[12] = HEK-293T cell viability reduction – luminescence, B-cell screen hits, cytotoxicity control for BCR NF-kB inhibitor project, dose response (AID 489021); type: functional, cell-based;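 note: HEK-293T cells carrying an NF-kB luciferase reporter; cells exposed to compound for about 14 hours before viability readout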
BJ [13] = assay: BJ-TERT-LT-ST fibroblast viability loss – cell-based, RAS-independent, luminescence, dose response (AID 1935); type: functional; settings: Homo sapiens;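 note: BJ fibroblasts immortalized with TERT plus LT and ST oncogenes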
BJ [14] = assay: cells; type: functional, cell-based; settings: Homo sapiens
[15] = NIH-3T3 fibroblast cytotoxicity, dose response, cytotoxicity control, cell-based, fluorescence, Alamar Blue, secondary assay (AID 2327); type: functional;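 note: NIH-3T3 mouse fibroblasts cultured with fluconazole at 8 µg/mL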
BJ [16] = assay: BJ-TERT fibroblast viability loss – cell-based, RAS-independent, luminescence, dose response (AID 1933); type: functional; settings: Homo sapiens
[17] = fluconazole-exposed Candida albicans growth modulators – fluorescence, retest, confirmation (AID 2467); type: functional, cell-based
A-375 = assay: proliferation inhibition in MITF-low A375 cells – cell-based, cherry-pick samples, set 2, counter-screen for MITF modulator project, dose response (AID 540335); type: functional; settings: Homo sapiens
INS1 = assay: INS-1E survival protection against cytokine death – cell-based, luminescence, retest, dose response (AID 449756); type: functional; settings: Rattus norvegicus;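 note: cell death triggered by IL-1 beta plus TNF-alpha plus IFN-gamma mixture; protective hits raise ATP signal compared with cytokine alone wells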
[18] = target: T4, Microphthalmia-associated transcription factor (Homo sapiens, UniProt O75030); assay: reducers of TRPM1 reporter luminescence, concentration series – cell-based, SK-MEL-5, cherry-picked, set 3, MITF inhibitor project, dose response (AID 493073); type: functional;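 note: SK-MEL-5 melanoma cells with luciferase driven by the MITF target TRPM1 promoter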
T4 sequence (O75030 whole entry): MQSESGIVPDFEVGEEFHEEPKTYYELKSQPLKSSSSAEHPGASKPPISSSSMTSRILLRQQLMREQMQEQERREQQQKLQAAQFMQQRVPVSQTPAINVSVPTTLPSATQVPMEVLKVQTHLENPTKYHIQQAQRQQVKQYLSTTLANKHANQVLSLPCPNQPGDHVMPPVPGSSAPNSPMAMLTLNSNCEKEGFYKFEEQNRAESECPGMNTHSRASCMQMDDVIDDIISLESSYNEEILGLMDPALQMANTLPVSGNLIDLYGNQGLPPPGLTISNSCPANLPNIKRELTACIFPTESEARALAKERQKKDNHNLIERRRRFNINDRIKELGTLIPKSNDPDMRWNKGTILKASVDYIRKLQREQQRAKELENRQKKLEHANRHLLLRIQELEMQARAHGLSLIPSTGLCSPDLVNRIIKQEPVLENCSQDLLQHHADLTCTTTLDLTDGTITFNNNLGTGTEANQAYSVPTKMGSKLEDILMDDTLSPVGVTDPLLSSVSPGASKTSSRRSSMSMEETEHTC

[19] = DRD fibroblast viability loss – cell-based, non-viral oncogenic, luminescence, dose response (AID 1934); type: functional; settings: Homo sapiens
[20] = target: T5, Short transient receptor potential channel 4 (Mus musculus, UniProt Q9QUQ5); assay: potency of mouse TRPC4 calcium flux blockers – cell-based, HEK293 TRPC4/mu-opioid, DAMGO stimulus, Fluo-4, dose response (AID 492994); type: functional
T5 sequence (Q9QUQ5 whole entry): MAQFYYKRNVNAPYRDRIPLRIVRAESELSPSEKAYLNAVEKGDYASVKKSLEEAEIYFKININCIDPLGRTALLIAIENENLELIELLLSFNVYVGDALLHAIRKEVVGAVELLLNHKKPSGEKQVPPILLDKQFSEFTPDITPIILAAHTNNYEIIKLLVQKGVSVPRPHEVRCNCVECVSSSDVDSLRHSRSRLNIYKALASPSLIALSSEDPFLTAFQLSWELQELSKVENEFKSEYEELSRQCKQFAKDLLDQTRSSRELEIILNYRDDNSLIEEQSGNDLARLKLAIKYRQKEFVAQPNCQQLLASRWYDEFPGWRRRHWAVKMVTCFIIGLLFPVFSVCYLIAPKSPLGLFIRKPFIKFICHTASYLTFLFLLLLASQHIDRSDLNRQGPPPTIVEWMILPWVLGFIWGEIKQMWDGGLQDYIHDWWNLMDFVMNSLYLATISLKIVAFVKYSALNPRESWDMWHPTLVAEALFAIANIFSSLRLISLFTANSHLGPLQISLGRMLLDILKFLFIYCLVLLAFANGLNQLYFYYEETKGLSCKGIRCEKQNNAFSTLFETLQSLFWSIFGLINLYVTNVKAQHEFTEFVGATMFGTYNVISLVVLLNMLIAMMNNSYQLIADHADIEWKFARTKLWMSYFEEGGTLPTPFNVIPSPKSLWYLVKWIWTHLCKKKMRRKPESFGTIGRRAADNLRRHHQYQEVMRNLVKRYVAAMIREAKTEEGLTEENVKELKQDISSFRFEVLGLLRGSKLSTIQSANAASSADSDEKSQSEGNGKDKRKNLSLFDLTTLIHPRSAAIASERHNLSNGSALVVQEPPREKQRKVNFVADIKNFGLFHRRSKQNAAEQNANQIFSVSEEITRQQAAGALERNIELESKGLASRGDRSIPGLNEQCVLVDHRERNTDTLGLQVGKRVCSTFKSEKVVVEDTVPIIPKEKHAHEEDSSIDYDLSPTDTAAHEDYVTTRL

[21] = target: T5, Short transient receptor potential channel 4; assay: SAR Analysis for the identification of selective inhibits of the transient receptor potential cation channel C4 (TRPC4): Automated Electrophysiology_2. [Related pubchem assays (depositor defined):AID2256]; type: functional

T2 sequence (Q9Y2R2 whole entry): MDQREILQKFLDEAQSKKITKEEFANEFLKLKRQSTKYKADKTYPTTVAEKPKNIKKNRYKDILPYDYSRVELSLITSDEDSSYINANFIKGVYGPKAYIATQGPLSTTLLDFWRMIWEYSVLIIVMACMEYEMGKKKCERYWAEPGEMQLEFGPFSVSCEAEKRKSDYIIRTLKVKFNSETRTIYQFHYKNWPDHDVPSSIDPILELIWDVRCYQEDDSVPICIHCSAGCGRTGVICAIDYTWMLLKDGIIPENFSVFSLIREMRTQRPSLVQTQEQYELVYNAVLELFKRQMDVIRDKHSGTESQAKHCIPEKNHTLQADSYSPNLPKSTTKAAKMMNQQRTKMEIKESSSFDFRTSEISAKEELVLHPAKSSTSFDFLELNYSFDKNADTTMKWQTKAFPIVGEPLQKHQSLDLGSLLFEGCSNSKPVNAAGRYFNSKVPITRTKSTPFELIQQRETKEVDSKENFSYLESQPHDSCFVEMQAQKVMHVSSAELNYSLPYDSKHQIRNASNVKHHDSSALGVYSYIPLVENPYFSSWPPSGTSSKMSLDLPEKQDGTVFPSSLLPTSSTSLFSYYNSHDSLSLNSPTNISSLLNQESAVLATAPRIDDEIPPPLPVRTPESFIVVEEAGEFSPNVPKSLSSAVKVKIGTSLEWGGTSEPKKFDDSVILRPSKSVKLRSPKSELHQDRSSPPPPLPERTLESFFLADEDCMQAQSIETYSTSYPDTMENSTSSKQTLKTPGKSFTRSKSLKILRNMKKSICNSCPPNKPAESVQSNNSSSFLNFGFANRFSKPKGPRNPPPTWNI
Dual specificity protein phosphatase 6, sequence (Q64346 whole entry): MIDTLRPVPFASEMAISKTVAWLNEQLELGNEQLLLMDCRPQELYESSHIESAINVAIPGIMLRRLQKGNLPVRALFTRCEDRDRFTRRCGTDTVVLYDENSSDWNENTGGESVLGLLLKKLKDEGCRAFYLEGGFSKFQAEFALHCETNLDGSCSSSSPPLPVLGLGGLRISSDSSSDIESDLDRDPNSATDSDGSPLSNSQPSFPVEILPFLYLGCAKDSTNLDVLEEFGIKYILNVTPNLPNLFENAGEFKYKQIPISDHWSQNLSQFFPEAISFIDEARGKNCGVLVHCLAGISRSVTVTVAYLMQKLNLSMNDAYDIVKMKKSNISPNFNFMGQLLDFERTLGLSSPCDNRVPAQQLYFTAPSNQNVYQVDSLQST
Tyrosine-protein phosphatase non-receptor type 12, sequence (Q05209 whole entry): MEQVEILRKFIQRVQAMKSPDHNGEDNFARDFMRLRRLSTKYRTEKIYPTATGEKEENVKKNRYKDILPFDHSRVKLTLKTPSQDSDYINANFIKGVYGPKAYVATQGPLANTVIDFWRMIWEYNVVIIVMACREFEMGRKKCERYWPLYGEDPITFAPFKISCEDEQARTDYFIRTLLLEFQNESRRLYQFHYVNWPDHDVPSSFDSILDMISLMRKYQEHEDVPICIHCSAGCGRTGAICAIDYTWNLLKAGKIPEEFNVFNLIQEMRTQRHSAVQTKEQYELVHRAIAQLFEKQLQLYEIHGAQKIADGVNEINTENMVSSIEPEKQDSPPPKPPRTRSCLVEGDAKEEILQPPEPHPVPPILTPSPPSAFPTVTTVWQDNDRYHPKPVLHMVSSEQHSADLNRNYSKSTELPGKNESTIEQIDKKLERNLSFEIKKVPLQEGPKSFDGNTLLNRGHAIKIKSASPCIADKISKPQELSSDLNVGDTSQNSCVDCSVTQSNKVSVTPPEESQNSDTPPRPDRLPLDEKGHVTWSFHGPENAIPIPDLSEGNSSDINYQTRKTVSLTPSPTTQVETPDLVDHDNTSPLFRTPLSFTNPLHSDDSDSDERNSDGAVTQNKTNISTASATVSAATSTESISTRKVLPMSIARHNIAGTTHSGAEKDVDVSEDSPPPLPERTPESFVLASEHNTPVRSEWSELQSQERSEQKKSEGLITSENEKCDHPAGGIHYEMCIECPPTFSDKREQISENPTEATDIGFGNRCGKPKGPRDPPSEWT

## CC1CC(C)CN(c2ncc3c(n2)CC(c2ccccc2Cl)CC3=O)C1 (centres undefined)
Streptococcus [1]
  EC50: > 500 µM (not active)
[2]
  AC50: 30.2 µM (active)
[3]
  EC50: 7.25 µM (active)
Streptokinase A
  EC50: 10.2 µM (active)
Streptococcus [4]
  EC50: > 150 µM (not active)
[5]
  AC50: 4.15 µM (active)

## CC(C)(Oc1ccc2sc3ccccc3c2c1)C(=O)O
[6]
  IC50: > 99 µM (inactive)
[7]
  IC50: 9.45 µM (active)
[8]
  IC50: 83.8 µM (active)
[9]
  IC50: 77.5 µM (active)
[10]
  IC50: 30.2 µM (active)
[11]
  IC50: 0.45 µM (active)

## Cc1ccc(C(=O)Cn2cc(-c3ccc(C)cc3)[n+]3c2CCCCC3)cc1
[12]
  IC50: > 80 µM (inactive)
BJ [13]
  EC50: > 150 µM (not active)
BJ [14]
  EC50: > 150 µM (not active)
[15]
  EC50: > 150 µM (inactive)
BJ [16]
  EC50: 17.3 µM (active)
[17]
  EC50: 1.32 µM (active)
A-375
  AC50: 40.5 µM (active)
INS1
  AC50: 1.3 µM (active)
[18]
  AC50: 3.63 µM (active)
[19]
  EC50: 85.7 µM (active)

## Cc1cc(N2CCOc3ccccc32)nc2ccccc12
[20]
  IC50: 12 µM (active)
[21]
  IC50: 24.5 µM (active)
